What all share (format): functional, cell-based
One assay has as its system PC-3. Briefly: Antiproliferative activity against human PC3 cells after 48 hrs by sulforhodamine B assay. The settings on record: PC-3, 48 h. On the technique in general: The SRB assay estimates cell density from bound dye.
The subject of a further assay is HEp-2. Briefly: Antiproliferative activity against human Hep2 cells after 48 hrs by sulforhodamine B assay. Particulars: HEp-2, 48 h.
The subject of another assay is A549. Briefly: Antiproliferative activity against human A549 cells after 48 hrs by sulforhodamine B assay. Particulars: A549, 48 h.
The subject of another assay is HCT-116. Briefly: Antiproliferative activity against human HCT116 cells after 48 hrs by sulforhodamine B assay. Particulars: HCT-116, 48 h.
For a further assay, the system named is THP-1. Kind of assay: Antiproliferative activity against human THP1 cells after 48 hrs by sulforhodamine B assay. The settings on record: THP-1, 48 h.
The next assay relates to MCF7. Kind of assay: Antiproliferative activity against human MCF7 cells after 48 hrs by sulforhodamine B assay. The settings on record: MCF7, 48 h.

This passage reports IC50 results from ChEMBL document CHEMBL2375213, “Synthesis and anticancer activity of novel spiro-isoxazoline and spiro-isoxazolidine derivatives of α-santonin” (Eur J Med Chem, 2013).

Take `CC1=C2[C@H]3OC(=O)C4(CC(c5ccc(Br)c(F)c5)=NO4)[C@@H]3CC[C@@]2(C)C=CC1=O` (stereo partly drawn): the IC50 (as a rule, the concentration at which inhibition is half-maximal) worked out at 2 µM with PC-3; 33 µM in the assay with HEp-2; 3.1 µM with A549; 15 µM with HCT-116; 0.6 µM with THP-1; 0.9 µM in the assay with MCF7.

Take `CC1=C2[C@H]3OC(=O)C4(C[C@@H](c5ccc(F)c(Br)c5)N(c5ccccc5)O4)[C@@H]3CC[C@@]2(C)C=CC1=O` (stereo partly drawn): the IC50 in the assay on PC-3 came to 0.8 µM; in the assay with HEp-2, 100 µM; in the assay with A549, 100 µM; in the assay on HCT-116, 4.3 µM; in the assay with THP-1, 2.7 µM; in the assay on MCF7, 0.7 µM.

As to `CO[C@@]12[C@H](COC(N)=O)C3=C(C(=O)C(C)=C(N)C3=O)N1C[C@@H]1N[C@@H]12` [MITOMYCIN], in the assay on HCT-116, the IC50 was 0.5 µM.

In the case of `CC1=C2[C@H]3OC(=O)C4(CC(c5c6ccccc6cc6ccccc56)=NO4)[C@@H]3CC[C@@]2(C)C=CC1=O` (stereo partly drawn), the IC50 with PC-3 amounted to 0.3 µM; in the assay on HEp-2, 50 µM; with A549, 45 µM; in the assay with HCT-116, 45 µM; in the assay with THP-1 it was 0.8 µM; with MCF7, 0.2 µM.

With `O=c1[nH]cc(F)c(=O)[nH]1` [FLUOROURACIL], the IC50 in the assay with PC-3 was 2.2 µM; in the assay with HEp-2, 4.5 µM; in the assay with A549, 4.9 µM; in the assay on THP-1 it was 1 µM.

On to `CC1=C2[C@H]3OC(=O)C4(C[C@H](c5cccc([N+](=O)[O-])c5)N(c5ccccc5)O4)[C@@H]3CC[C@@]2(C)C=CC1=O` (stereo partly drawn), for which the 50% inhibitory concentration (IC50) in the assay on PC-3 amounted to 0.3 µM; in the assay on HEp-2, 100 µM; in the assay on A549, 81 µM; in the assay with HCT-116, 100 µM; in the assay with THP-1, 100 µM; in the assay on MCF7, 14 µM.

Regarding `COc1ccc(C2=NOC3(C2)C(=O)O[C@@H]2C4=C(C)C(=O)C=C[C@]4(C)CC[C@H]23)cc1Br` (stereo partly drawn), the IC50 turned out to be 100 µM in the assay on PC-3; 100 µM with HEp-2; 100 µM in the assay with A549; 50 µM in the assay with HCT-116; 21 µM in the assay with THP-1; 100 µM with MCF7.

`CC1=C2[C@H]3OC(=O)C4(CC(c5ccc([N+](=O)[O-])cc5)=NO4)[C@@H]3CC[C@@]2(C)C=CC1=O` (stereo partly drawn): the IC50 with PC-3 was found to be 100 µM; in the assay on HEp-2, 100 µM; in the assay on A549 it was 100 µM; in the assay on HCT-116, 55 µM; in the assay with THP-1, 100 µM; with MCF7, 56 µM.

On to `CC1=C2[C@H]3OC(=O)C4(CC(c5ccccc5Cl)=NO4)[C@@H]3CC[C@@]2(C)C=CC1=O` (stereo partly drawn), for which the IC50 in the assay with PC-3 turned out to be 0.9 µM; with HEp-2, 7.3 µM; in the assay on A549, 5.9 µM; with HCT-116 it was 100 µM; in the assay on THP-1, 0.2 µM; with MCF7 it was 0.5 µM.

As to `CC1=C2[C@H]3OC(=O)C4(C[C@@H](c5cccc([N+](=O)[O-])c5)N(c5ccccc5)O4)[C@@H]3CC[C@@]2(C)C=CC1=O` (stereo partly drawn), the IC50 in the assay on PC-3 was determined as 0.9 µM; in the assay on HEp-2 it was 100 µM; with A549, 10 µM; in the assay on HCT-116 it was 48 µM; with THP-1 it was 42 µM; in the assay with MCF7, 23 µM.

On to `CC1=C2[C@H]3OC(=O)C4(C[C@@H](c5cc(Cl)ccc5Cl)N(c5ccccc5)O4)[C@@H]3CC[C@@]2(C)C=CC1=O` (stereo partly drawn), for which the IC50 in the assay with PC-3 turned out to be 0.9 µM; with HEp-2 it was 0.6 µM; in the assay with A549, 55 µM; with HCT-116, 100 µM; in the assay on THP-1 it was 3.9 µM; in the assay on MCF7, 0.5 µM.

On to `CC1=C2[C@H]3OC(=O)C4(C[C@@H](c5cccc6ccccc56)N(c5ccccc5)O4)[C@@H]3CC[C@@]2(C)C=CC1=O` (stereo partly drawn), for which the IC50 in the assay on PC-3 came to 0.7 µM; in the assay with HEp-2 it was 100 µM; in the assay on A549 it was 3.3 µM; in the assay with HCT-116 it was 100 µM; with THP-1 it was 59 µM; with MCF7, 82 µM.

Turning to `CC1=C2[C@H]3OC(=O)C4(CC(c5ccc(O)cc5)=NO4)[C@@H]3CC[C@@]2(C)C=CC1=O` (stereo partly drawn), the IC50 was 55 µM with PC-3; 40 µM with HEp-2; 3.8 µM in the assay on A549; 8.2 µM in the assay on HCT-116; 100 µM in the assay on THP-1; 100 µM in the assay with MCF7.

On to `CC1=C2[C@H]3OC(=O)C4(C[C@H](c5cc(F)cc(F)c5)N(c5ccccc5)O4)[C@@H]3CC[C@@]2(C)C=CC1=O` (stereo partly drawn), for which the IC50 with PC-3 was 0.7 µM; in the assay with HEp-2, 100 µM; in the assay on A549, 100 µM; in the assay on HCT-116, 0.09 µM; in the assay with THP-1, 25 µM; with MCF7, 0.09 µM.

Take `COc1ccc([C@@H]2CC3(ON2c2ccccc2)C(=O)O[C@@H]2C4=C(C)C(=O)C=C[C@]4(C)CC[C@H]23)cc1Br` (stereo partly drawn): the IC50 with PC-3 amounted to 0.1 µM; in the assay with HEp-2 it was 100 µM; in the assay with A549 it was 2.7 µM; in the assay on HCT-116 it was 45 µM; in the assay with THP-1, 100 µM; in the assay with MCF7, 50 µM.

`CC1=C2[C@H]3OC(=O)C4(CC(c5ccc(Cl)cc5Cl)=NO4)[C@@H]3CC[C@@]2(C)C=CC1=O` (stereo partly drawn): the IC50 in the assay with PC-3 was determined as 26 µM; in the assay with HEp-2, 29 µM; with A549 it was 13 µM; in the assay with HCT-116 it was 29 µM; in the assay with THP-1 it was 35 µM; in the assay with MCF7, 95 µM.

`CC1=C2[C@H]3OC(=O)C4(C[C@H](c5ccc([N+](=O)[O-])cc5)N(c5ccccc5)O4)[C@@H]3CC[C@@]2(C)C=CC1=O` (stereo partly drawn): the IC50 worked out at 0.5 µM in the assay on PC-3; 14 µM in the assay with HEp-2; 66 µM in the assay with A549; 100 µM in the assay on HCT-116; 0.1 µM in the assay with THP-1; 0.7 µM in the assay with MCF7.

With `CC1=C2[C@H]3OC(=O)C4(CC(c5cc(F)cc(F)c5)=NO4)[C@@H]3CC[C@@]2(C)C=CC1=O` (stereo partly drawn), the IC50 in the assay with PC-3 is 2.2 µM; in the assay with HEp-2, 100 µM; in the assay on A549 it was 8.2 µM; in the assay with HCT-116, 100 µM; in the assay on THP-1, 0.4 µM; in the assay with MCF7, 0.5 µM.

For `CC1=C2[C@H]3OC(=O)C4(CC(c5ccc6ccccc6c5)=NO4)[C@@H]3CC[C@@]2(C)C=CC1=O` (stereo partly drawn), the IC50 with PC-3 came out at 0.6 µM; with HEp-2, 100 µM; in the assay on A549, 2.9 µM; with HCT-116 it was 100 µM; in the assay with THP-1, 0.4 µM; with MCF7, 30 µM.

As to `CC1=C2[C@H]3OC(=O)C4(CC(c5ccc(Br)cc5)=NO4)[C@@H]3CC[C@@]2(C)C=CC1=O` (stereo partly drawn), the IC50 is 100 µM in the assay with PC-3; 100 µM in the assay on HEp-2; 58 µM with A549; 100 µM in the assay with HCT-116; 100 µM in the assay on THP-1; 0.1 µM in the assay with MCF7.

Turning to `COc1cccc2c1C(=O)c1c(O)c3c(c(O)c1C2=O)C[C@@](O)(C(=O)CO)C[C@@H]3O[C@H]1C[C@H](N)[C@H](O)[C@H](C)O1` [DOXORUBICIN], the IC50 with PC-3 is 6 µM; in the assay on MCF7, 0.5 µM.

As for `CC1=C2[C@H]3OC(=O)C4(CC(c5ccccc5)=NO4)[C@@H]3CC[C@@]2(C)C=CC1=O` (stereo partly drawn), the IC50 is 78 µM with PC-3; 100 µM with HEp-2; 100 µM with A549; 100 µM with HCT-116; 100 µM in the assay on THP-1; 100 µM in the assay on MCF7.

Regarding `CC1=C2[C@H]3OC(=O)C4(CC(c5cccc(F)c5)=NO4)[C@@H]3CC[C@@]2(C)C=CC1=O` (stereo partly drawn), the IC50 came to 100 µM in the assay with PC-3; 100 µM with HEp-2; 0.7 µM in the assay on A549; 100 µM in the assay on HCT-116; 100 µM with THP-1; 0.4 µM with MCF7.

In the case of `CC1=C2[C@H]3OC(=O)C4(CC(c5c(Cl)cccc5Cl)=NO4)[C@@H]3CC[C@@]2(C)C=CC1=O` (stereo partly drawn), the IC50 in the assay on PC-3 is 100 µM; in the assay with HEp-2, 15 µM; with A549, 100 µM; in the assay with HCT-116, 10 µM; with THP-1, 100 µM; in the assay with MCF7, 27 µM.

Turning to `COc1ccc(C2=NOC3(C2)C(=O)O[C@@H]2C4=C(C)C(=O)C=C[C@]4(C)CC[C@H]23)cc1` (stereo partly drawn), the IC50 in the assay on PC-3 was 100 µM; in the assay with HEp-2 it was 100 µM; in the assay on A549 it was 0.2 µM; in the assay with HCT-116 it was 52 µM; in the assay with THP-1, 7.9 µM; in the assay with MCF7, 0.02 µM.

For the compound `COc1ccc([C@H]2CC3(ON2c2ccccc2)C(=O)O[C@@H]2C4=C(C)C(=O)C=C[C@]4(C)CC[C@H]23)cc1Br` (stereo partly drawn), the IC50 is 0.1 µM in the assay with PC-3; 100 µM with HEp-2; 8.5 µM with A549; 100 µM in the assay with HCT-116; 100 µM in the assay on THP-1; 100 µM in the assay with MCF7.

Regarding `CC1=C2[C@H]3OC(=O)C4(C[C@H](c5cccc6ccccc56)N(c5ccccc5)O4)[C@@H]3CC[C@@]2(C)C=CC1=O` (stereo partly drawn), the IC50 in the assay with PC-3 is 0.6 µM; in the assay on HEp-2, 100 µM; in the assay on A549, 1.4 µM; in the assay with HCT-116, 100 µM; in the assay on THP-1, 100 µM; in the assay on MCF7 it was 14 µM.

On to `CC1=C2[C@H]3OC(=O)C4(C[C@@H](c5ccc([N+](=O)[O-])cc5)N(c5ccccc5)O4)[C@@H]3CC[C@@]2(C)C=CC1=O` (single isomer, unassigned), for which the IC50 in the assay with PC-3 amounted to 0.6 µM; in the assay with HEp-2, 100 µM; in the assay with A549, 66 µM; in the assay with HCT-116, 100 µM; in the assay on THP-1 it was 0.1 µM; with MCF7 it was 0.9 µM.

`CC1=C2[C@H]3OC(=O)C4(C[C@@H](c5cc(F)cc(F)c5)N(c5ccccc5)O4)[C@@H]3CC[C@@]2(C)C=CC1=O` (stereo partly drawn): the IC50 with PC-3 stood at 1.4 µM; in the assay with HEp-2, 100 µM; with A549, 14 µM; with HCT-116, 28 µM; in the assay on THP-1, 0.8 µM; in the assay on MCF7 it was 3.9 µM.
